Source: patent US20170150719A1, “FUNGICIDAL PYRAZOLES AND THEIR MIXTURES” (E I DU PONT DE NEMOURS AND COMPANY, priority 2010, published 2017)
Marks after values point to notes of the source that are not given here.

Tests used:
[1] = system: Puccinia recondita f. sp. tritici; assay: Test G: wheat leaf rust, spray after inoculation (curative) on wheat seedlings, visual disease rating; assay type: in vivo; conditions: for Test G rating (% disease control): spray after inoculation, rating without asterisk
From the text: (§1) A hyphen (-) indicates no test results.

Alternaria solani = assay: Test B: tomato early blight, preventive spray on tomato seedlings, visual disease rating; conditions: for Test B rating (% disease control): preventive spray, rating without asterisk; for Test B rating (% disease control) / Test B rating (disease control): 100 = 100% disease control; for Test B rating (disease control): 0 = no disease control relative to the controls
[2] = system: Blumeria graminis f. sp. tritici; assay: Test I: wheat powdery mildew, preventive spray on wheat seedlings, visual disease rating; conditions: for Test I rating (% disease control): preventive spray, rating without asterisk
Procedure: General protocol for preparing test suspensions for Tests A-I: the test compounds were first dissolved in acetone in an amount equal to 3% of the final volume and then suspended at the desired concentration (in ppm) in acetone and purified water (50/50 mix by volume) containing 250 ppm of the surfactant Trem® 014 (polyhydric alcohol esters). The resulting test suspensions were then used in Tests A-I. Each test was conducted in triplicate, and the results were averaged. Spraying a 200 ppm test suspension to the point of run-off on the test plants was the equivalent of a rate of about 800 g/ha. Unless otherwise indicated, the rating values indicate a 200 ppm test suspension was used. (An asterisk “*” next to the rating value indicates a 40 ppm test suspension was used.)
The test suspension was sprayed to the point of run-off on wheat seedlings. The following day the seedlings were inoculated with a spore dust of Blumeria graminis f. sp. tritici (also known as Erysiphe graminis f. sp. tritici, the causal agent of wheat powdery mildew) and incubated in a growth chamber at 20° C. for 8 days, after which time visual disease ratings were made.

Septoria nodorum = assay: Test E: Septoria glume blotch, preventive spray on wheat seedlings, visual disease rating; conditions: for Test E rating (% disease control): Septoria glume blotch on wheat, preventive spray, rating without asterisk
Septoria tritici = assay: Test F: wheat leaf blotch, preventive spray on wheat seedlings, visual disease rating; assay type: in vivo; design: Test F rating (disease control), value marked *: concentration or dose not given beside the values; conditions: for Test F rating (% disease control): preventive spray, rating without asterisk; for Test F rating (disease control), value marked *: rating marked with asterisk (*), other test condition, not explained in the text shown
From the text: as §1

Botrytis cinerea = assay: Test A: tomato Botrytis, preventive spray on tomato seedlings, visual disease rating; conditions: for Test A rating (% disease control): preventive spray, 0 = no control relative to controls, rating without asterisk
[3] = system: Puccinia recondita f. sp. tritici; assay: Test H: wheat leaf rust, preventive spray on wheat seedlings, visual disease rating; conditions: for Test H rating (% disease control): preventive spray, rating without asterisk; for Test H rating (disease control): sprayed the day before inoculation
[4] = wheat powdery mildew, 100 = 100% disease control
[5] = tomato Botrytis, 100 = 100% disease control
[6] = wheat leaf rust, 100 = 100% disease control
[7] = sprayed after inoculation, 100 = 100% disease control, 0 = no disease control
[8] = wheat powdery mildew, 100 = 100% disease control, 0 = no disease control relative to the controls
[9] = Septoria glume blotch, 100 = 100% disease control, 0 = no disease control relative to the controls
[10] = 100 = 100% disease control, 0 = no disease control relative to the controls
[11] = tomato Botrytis, 100 = 100% disease control, 0 = no disease control relative to the controls
[12] = wheat leaf rust, 100 = 100% disease control, 0 = no disease control

Compound	Test G rating (disease control) [1, 7]	Test B rating (disease control) (Alternaria solani; tomato early blight)	Test I rating (disease control) [2, 8]	Test E rating (disease control) (Septoria nodorum; [9])	Test F rating (disease control) (Septoria tritici; [10])	Test A rating (disease control) (Botrytis cinerea; [11])	Test H rating (disease control) [3, 12]	other results
Cc1nn(C)c(Nc2c(F)cc(Cl)cc2Cl)c1-c1ccc(Cl)cc1F [compound 231]								Test G rating (% disease control) ([1]; 100 = 100% disease control): 9%; Test B rating (% disease control) (Alternaria solani; tomato early blight): 58%; Test I rating (% disease control) [2, 4]: 99%; Test E rating (% disease control) (Septoria nodorum; 100 = 100% disease control): 0%; Test F rating (% disease control) (Septoria tritici; 100 = 100% disease control): 100%; Test A rating (% disease control) (Botrytis cinerea; [5]): 33%; Test H rating (% disease control) [3, 6]: 94%
Cc1nn(C)c(Nc2ccc(C#N)cc2Cl)c1-c1ccc(F)cc1Cl [compound 44]	8%	0%	94%	0%	99%	99%	98%	
Cc1nn(C)c(Nc2c(F)cc(Br)cc2F)c1-c1ccc(F)cc1F [Compound 133, N-(4-bromo-2,6-difluorophenyl)-4-(2,4-difluorophenyl)-1,3-dimethyl-1H-pyrazol-5-amine]								pest or weed control at 200 µg/mL [1, 7]: 0%; pest or weed control at 200 µg/mL (Alternaria solani; Alternaria solani, in Solanum lycopersicum, read-out: Test B rating (disease control)): 97%; pest or weed control at 200 µg/mL ([2]; Blumeria graminis, in Triticum aestivum, read-out: Test I rating (disease control), wheat powdery mildew, 100 = 100% disease control, 0 = no disease control relative to the controls): 100%; pest or weed control at 200 µg/mL (Septoria nodorum; Parastagonospora nodorum, in Triticum aestivum, read-out: Test E rating (disease control), Septoria glume blotch, 100 = 100% disease control, 0 = no disease control relative to the controls): 88%; pest or weed control at 200 µg/mL (Septoria tritici; Zymoseptoria tritici, 100 = 100% disease control, 0 = no disease control relative to the controls): 100%; pest or weed control at 200 µg/mL (Botrytis cinerea; Botrytis cinerea, in Solanum lycopersicum, read-out: Test A rating (disease control), tomato Botrytis, 100 = 100% disease control, 0 = no disease control relative to the controls): 99%; pest or weed control at 200 µg/mL ([3]; read-out: Test H rating (disease control), wheat leaf rust, sprayed the day before inoculation, 100 = 100% disease control, 0 = no disease control): 99%
COc1cc(F)c(Nc2c(-c3ccccc3F)c(C)nn2C)c(F)c1 [compound 54]	27%	100%	99%	67%	99%	97%	94%	
Cc1nn(C)c(Nc2ccc(F)cc2F)c1-c1ccccc1F [compound 52]	0%	44%	98%	0%	100%	94%	60%	
Cc1nn(C)c(Nc2c(Cl)cc(Br)cc2Cl)c1-c1ccc(F)cc1Cl [compound 164]	99%	0%	99%	0%	100%	99%	100%	
COc1cc(F)c(Nc2c(-c3c(F)cccc3F)c(C)nn2C)c(F)c1 [compound 72]	0%	99%	98%	0%	100%	100%	97%	
COc1ccc(-c2c(C)nn(C)c2Oc2ccc(C#N)cc2Cl)c(Br)c1 [compound 99]	0%	0%	89%	0%	100%	99%	97%	
Cc1nn(C)c(Nc2c(F)cc(Br)cc2Br)c1-c1ccc(F)cc1Cl [compound 212]								Test G rating (% disease control) ([1]; 100 = 100% disease control): 97%; Test B rating (% disease control) (Alternaria solani; tomato early blight): 100%; Test I rating (% disease control) [2, 4]: 100%; Test E rating (% disease control) (Septoria nodorum; 100 = 100% disease control): 100%; Test F rating (% disease control) (Septoria tritici; 100 = 100% disease control): 100%; Test A rating (% disease control) (Botrytis cinerea; [5]): 98%; Test H rating (% disease control) [3, 6]: 100%
Cc1nn(C)c(Nc2ccc(F)cc2F)c1-c1ccccc1Cl [compound 97]	0%	99%	100%	0%	100%	99%	96%	
Cc1nn(C)c(Nc2c(F)cc(C#N)cc2F)c1-c1c(F)cccc1Cl [compound 57]	0%	100%	99%	73%	100%	97%	99%	
COc1ccc(-c2c(C)nn(C)c2Oc2ccc(C#N)cc2F)c(Cl)c1 [compound 92]	0%	99%	96%	99%	100%	100%	99%	
Cc1nn(C)c(Nc2c(F)cc(Cl)cc2I)c1-c1ccc(F)cc1Cl [compound 182]								Test G rating (% disease control) ([1]; 100 = 100% disease control): 100%; Test B rating (% disease control) (Alternaria solani; tomato early blight): 100%; Test I rating (% disease control) [2, 4]: 100%; Test E rating (% disease control) (Septoria nodorum; 100 = 100% disease control): 100%; Test F rating (% disease control) (Septoria tritici; 100 = 100% disease control): 100%; Test A rating (% disease control) (Botrytis cinerea; [5]): 100%; Test H rating (% disease control) [3, 6]: 100%
COc1cc(F)c(-c2c(C)nn(C)c2Nc2ccc(C#N)cc2Cl)c(F)c1 [compound 32]	11%	97%	97%	82%	100%	99%	98%	
Cc1nn(C)c(Nc2c(Cl)cc(F)cc2Cl)c1-c1c(Cl)cccc1Cl [compound 115]	0%	0%	93%	0%	99%	99%	99%	
Cc1nn(C)c(Nc2ccc(F)cc2Cl)c1-c1ccc(C#N)cc1Cl [compound 112]	8%	37%	99%	40%	100%	100%	100%	
COc1ccc(-c2c(C)nn(C)c2Nc2c(F)cc(I)cc2F)c(Cl)c1 [compound 220]								Test G rating (% disease control) ([1]; 100 = 100% disease control): 0%; Test B rating (% disease control) (Alternaria solani; tomato early blight): 69%; Test I rating (% disease control) [2, 4]: 96%; Test E rating (% disease control) (Septoria nodorum; 100 = 100% disease control): 73%; Test F rating (% disease control) (Septoria tritici; 100 = 100% disease control): 100%; Test A rating (% disease control) (Botrytis cinerea; [5]): 100%; Test H rating (% disease control) [3, 6]: 97%
Cc1nn(C)c(Nc2c(F)cc(F)cc2F)c1-c1ccccc1Br [compound 70]	0%	26%	100%	73%	100%	99%	99%	
Cc1nn(C)c(Nc2ccc(Cl)cc2Cl)c1-c1ccc(F)cc1Cl [compound 88]	41%	95%	100%	51%		100%	100%	Test F rating (disease control), value marked * (Septoria tritici): 100* %
Cc1nn(C)c(Nc2ccc(Br)cc2Br)c1-c1ccc(F)cc1F [compound 184]								Test G rating (% disease control) ([1]; 100 = 100% disease control): 0%; Test B rating (% disease control) (Alternaria solani; tomato early blight): 58%; Test I rating (% disease control) [2, 4]: 100%; Test E rating (% disease control) (Septoria nodorum; 100 = 100% disease control): 60%; Test F rating (% disease control) (Septoria tritici; 100 = 100% disease control): 100%; Test A rating (% disease control) (Botrytis cinerea; [5]): 100%; Test H rating (% disease control) [3, 6]: 98%
Cc1nn(C)c(Oc2ccc(Cl)cc2F)c1-c1ccc(F)cc1Cl [compound 158]								Test G rating (disease control), value marked * ([1]; sprayed after inoculation, rating marked with asterisk (*), not explained in the text shown): 37* %; Test B rating (disease control), value marked * (Alternaria solani; tomato early blight, rating marked with asterisk (*), other test condition, not explained in the text shown): 80* %; Test I rating (disease control), value marked * ([2]; wheat powdery mildew, rating marked with asterisk (*), not explained in the text shown): 96* %; Test E rating (disease control), value marked * (Septoria nodorum; Septoria glume blotch, rating marked with asterisk (*), other test condition, not explained in the text shown): 0* %; Test F rating (disease control), value marked * (Septoria tritici): 99* %; Test A rating (disease control), value marked * (Botrytis cinerea; tomato Botrytis, rating marked with asterisk (*), other test condition, not explained in the text shown): 100* %; Test H rating (disease control), value marked * ([3]; wheat leaf rust, preventive, rating marked with asterisk (*), not explained in the text shown): 98* %
